The values below come from patent US10004225B2, “Wearable insect repelling patch” (S. C. Johnson & Son, Inc., priority 2005, dated 2018).

Each structure is given as a SMILES string. Where two headings read alike, the source gives them in different places.

One series has as its system mosquitoes. The series is described as follows: Three-chamber test apparatus, mosquito personal area repellency of hung patches with human test subject as attractant. Conditions: for personal area control (result in words): no adhesive layer. It counts as in vivo. On the procedure: Various patch sizes and insect repellents were tested, initially using the test apparatus shown schematically generally at 20 in FIG. 3. The test apparatus 20 has a sample chamber 22, connected to a mosquito chamber 24, which is connected via an opening 34 to a remote chamber 26. Each chamber is generally cubical, with a volume of about 0.43 m^3.
The sample chamber 22 has an open end 28 on the side remote from the mosquito chamber 24. A screen 30 divides the sample chamber 22 from the mosquito chamber 24. The opening 34 between the mosquito chamber 24 and the remote chamber 26 is slightly constricted by side walls 32. However, the opening 34 is still sufficiently large that mosquitoes can freely move between the mosquito and remote chambers 24 and 26.
Four, screened, low-flow exhaust ports 36 are located in the side walls 32, the exhaust ports facing the open end 28. Air is drawn through the exhaust ports 36 and exhausted from the mosquito chamber 24 at a rate sufficient to draw air in through the open end 28 but insufficient to affect the flying of mosquitoes placed in the mosquito chamber 24 or to disturb the air in the remote chamber 26.
For each test, a human test subject 38 is placed at the open end 28 of the sample chamber 22, the test subject's breath providing the warmth, CO2, and moisture known to be human attractants for mosquitoes. The exhaust ports 36 pull air, along with those attractants, though the open end 28 and on through the sample chamber 22, the screen 30, and the mosquito chamber 24. The attractants thus leave the apparatus 20 without entering the remote chamber 26.
Mosquitoes are placed in the mosquito chamber 24 and are quickly attracted to the screen 30 by the human attractants. The open end 28 is large enough to expose primarily the upper torso and head of the test subject. Two patches 10 are hung one foot into the sample chamber 22 and approximately 20 cm down from the chamber's top (except as was done otherwise in particular experiments, as is noted, below).
Percent repellency was calculated as the percent of mosquitoes that had been initially introduced into the mosquito chamber 24 (most of which were attracted to the screen 30 before the patches 10 were put in place), that then were repelled from the screen when the patches were introduced. The “repellency” indicated in the table, below, for time zero reflects the mosquitoes that were not yet attracted to the screen 30 by the time the test patches 10 were introduced. […] The patches 10 used were 103 cm^2 in size, with no adhesive layer 18.
The patch material was a non-woven cloth material comprised of rayon, polyester, and polypropylene (as described in published U.S. Patent Application US20040082248), dosed with 60 mg of the active ingredient. The controls used no patches.
The same test apparatus 20 was used in the same way as described in Example 1, with the following changes. When a test included four patches 10, two were hung as in Example 1, and two were hung about 13 cm from the bottom of the chamber to simulate patches worn on the shoulders and at the waist of a user. In one test, as indicated in the table, below, the patches 10 were attached to the test subject's chest. Each individual patch was treated with the amount of insect repellent indicated. Time is shown in minutes.

For series [1] the following is noted: cited from earlier work.
Setting [2] is: Example 1, 2 patches 103 cm^2, 60 mg each.
[3] abbreviates: Example 1, 2 patches 103 cm^2, 60 mg each, no adhesive, 5 min.
The mark [4] stands for this setting: Example 1, 2 patches 103 cm^2, 60 mg each, no adhesive, 10 min.
The mark [5] stands for this setting: Example 1, 2 patches 103 cm^2, 60 mg each, no adhesive, 15 min.
Setting [6] is: Example 1, 2 patches 103 cm^2, 60 mg each, no adhesive, 20 min.
Where [7] appears, read: Example 1, 2 patches 103 cm^2, 60 mg each, no adhesive, time 0 min (mosquitoes not yet attracted to screen).

On to `C#C[C@@H](OC(=O)[C@@H]1[C@@H](C=C(C)C)C1(C)C)C(C)=CCC` (racemic) [emphenthrin, (RS)-1-ethynyl-2-methyl-2-pentenyl-(1RS,3RS)-2,2-dimethyl-3-(2-methylpropenyl)-cyclopropanecarboxylate], for which the “% Repellency” value in the series on mosquitoes (Example 2, 2 patches 103 cm^2, 60 mg each, 0 min) came out at 17; in the series with mosquitoes (Example 2, 2 patches 103 cm^2, 60 mg each, 5 min), 33; with mosquitoes (Example 2, 2 patches 103 cm^2, 60 mg each, 10 min) it was 29; with mosquitoes (Example 2, 2 patches 103 cm^2, 60 mg each, 15 min) it was 29. For the same compound, in the series with mosquitoes (Example 2, 2 patches 103 cm^2, 60 mg each, within 20 minutes), the “practical mosquito personal area repellency (result in words)” value is “proved not to be an insect repellent capable of providing practical mosquito personal area repellency within 20 minutes”.

As to `CC=C[C@@H]1[C@@H](C(=O)OCc2c(F)c(F)c(C)c(F)c2F)C1(C)C` (racemic) [profluthrin, 2,3,5,6-tetrafluoro-4-methylbenzyl (EZ)-(1RS,3RS)-2,2-dimethyl-3-(prop-1-enyl)-cyclopropanecarboxylate], the “personal area repellency (result in words)” value in the series with mosquitoes (setting [2]) is on record as “successful personal area repellency”. Moreover, the “% Repellency” value with mosquitoes (setting [3]) came out at 55%; in the series with mosquitoes (setting [4]), 67%; with mosquitoes (setting [5]), 91%; with mosquitoes (setting [6]) it was 93%; with mosquitoes (setting [7]), 6%. Besides, the Vapor pressure in series [1] (@ 25° C.) is given as 7.73 × 10^−5 mmHg @.

Turning to `COP(=O)(OC)OC=C(Cl)Cl` [DDVP, 2,2-dichlorovinyl dimethyl phosphate], the “% Repellency” value was 5 in the series with mosquitoes (Example 2, 4 patches 103 cm^2, 60 mg each, 0 min); 11 in the series on mosquitoes (Example 2, 4 patches 103 cm^2, 60 mg each, 5 min); 47 with mosquitoes (Example 2, 4 patches 103 cm^2, 60 mg each, 10 min); 95 with mosquitoes (Example 2, 4 patches 103 cm^2, 60 mg each, 15 min); 95 with mosquitoes (Example 2, 4 patches 103 cm^2, 60 mg each, 20 min). Further, in the series on mosquitoes (Example 2, 4 patches, each 103 cm^2 in gross area), the “personal area control (result in words)” value is on record as “successful personal area control”. In addition, in series [1] (@ 20° C.), the Vapor pressure is 1.2 × 10^−5 mmHg @.

As to `CC1(C)[C@H](C=C(Cl)Cl)[C@H]1C(=O)OCc1c(F)c(F)cc(F)c1F` [transfluthrin, (1R-trans)-(2,3,5,6-tetrafluorophenyl)-methyl-3-(2,2-dichloroethenyl)-2,2-dimethylcyclopropanecarboxylate], the “personal area repellency (result in words)” value in the series on mosquitoes (setting [2]) was “successful personal area repellency”. Also, the “% Repellency” value stood at 54% with mosquitoes (setting [3]); 75% with mosquitoes (setting [4]); 90% with mosquitoes (setting [5]); 92% with mosquitoes (setting [6]); 13% in the series with mosquitoes (setting [7]); 13 with mosquitoes (Example 2, 2 patches 25.8 cm^2, 30 mg each, 0 min). For the same compound, the “% Repellency” value was determined as 41 in the series with mosquitoes (Example 2, 2 patches 25.8 cm^2, 30 mg each, 5 min); 68 in the series on mosquitoes (Example 2, 2 patches 25.8 cm^2, 30 mg each, 10 min); 74 with mosquitoes (Example 2, 2 patches 25.8 cm^2, 30 mg each, 15 min); 79 in the series on mosquitoes (Example 2, 2 patches 25.8 cm^2, 30 mg each, 20 min); 19 in the series on mosquitoes (Example 2, 2 patches 103.22 cm^2 taped to test subject's chest, 60 mg each, 0 min); 33 with mosquitoes (Example 2, 2 patches 103.22 cm^2 taped to test subject's chest, 60 mg each, 5 min). Also, the “% Repellency” value in the series with mosquitoes (Example 2, 2 patches 103.22 cm^2 taped to test subject's chest, 60 mg each, 10 min) was determined as 44; in the series with mosquitoes (Example 2, 2 patches 103.22 cm^2 taped to test subject's chest, 60 mg each, 15 min), 52; with mosquitoes (Example 2, 2 patches 103.22 cm^2 taped to test subject's chest, 60 mg each, 20 min) it was 81; in the series with mosquitoes (Example 2, 4 patches 6.45 cm^2, 120 mg each, 0 min), 11; in the series on mosquitoes (Example 2, 4 patches 6.45 cm^2, 120 mg each, 5 min), 21; with mosquitoes (Example 2, 4 patches 6.45 cm^2, 120 mg each, 10 min) it was 32. The “% Repellency” value in the series with mosquitoes (Example 2, 4 patches 6.45 cm^2, 120 mg each, 15 min) is given as 42; in the series with mosquitoes (Example 2, 4 patches 6.45 cm^2, 120 mg each, 20 min), 47; with mosquitoes (Example 2, 4 patches* 6.45 cm^2, 60 mg each, 4th patch added 10 minutes into test, 0 min), 5; with mosquitoes (Example 2, 4 patches* 6.45 cm^2, 60 mg each, 4th patch added 10 minutes into test, 5 min) it was 26; in the series with mosquitoes (Example 2, 4 patches* 6.45 cm^2, 60 mg each, 4th patch added 10 minutes into test, 10 min), 47; in the series with mosquitoes (Example 2, 4 patches* 6.45 cm^2, 60 mg each, 4th patch added 10 minutes into test, 15 min), 47. In the series on mosquitoes (Example 2, 4 patches* 6.45 cm^2, 60 mg each, 4th patch added 10 minutes into test, 20 min), the “% Repellency” value turned out to be 47. Besides, the “personal area control (result in words)” value in the series with mosquitoes (Example 2, total area of patches at least 51.6 cm^2 (2 patches, each 25.8 cm^2)) is “successful personal area control”. Further, the Vapor pressure in series [1] (@ 20° C.) is on record as 3.0 × 10^−6 mmHg @.
